Activity calls are given as the source filed them.
Legend:
Ephrin type-A receptor 4 = Ephrin type-A receptor 4 (Mus musculus, UniProt Q03137); assay: inhibitors of EphA4 binding to KYL peptide, primary screen, biochemical, colorimetric, mouse EphA4 (AID 689); assay type: functional
Cytochrome P450 1A2 = molecular target: T1, Cytochrome P450 1A2 (Homo sapiens, UniProt P05177);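 note: PubChem cytochrome P450 panel assay, CYP1A2 panel member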
T1 sequence (P05177 whole entry): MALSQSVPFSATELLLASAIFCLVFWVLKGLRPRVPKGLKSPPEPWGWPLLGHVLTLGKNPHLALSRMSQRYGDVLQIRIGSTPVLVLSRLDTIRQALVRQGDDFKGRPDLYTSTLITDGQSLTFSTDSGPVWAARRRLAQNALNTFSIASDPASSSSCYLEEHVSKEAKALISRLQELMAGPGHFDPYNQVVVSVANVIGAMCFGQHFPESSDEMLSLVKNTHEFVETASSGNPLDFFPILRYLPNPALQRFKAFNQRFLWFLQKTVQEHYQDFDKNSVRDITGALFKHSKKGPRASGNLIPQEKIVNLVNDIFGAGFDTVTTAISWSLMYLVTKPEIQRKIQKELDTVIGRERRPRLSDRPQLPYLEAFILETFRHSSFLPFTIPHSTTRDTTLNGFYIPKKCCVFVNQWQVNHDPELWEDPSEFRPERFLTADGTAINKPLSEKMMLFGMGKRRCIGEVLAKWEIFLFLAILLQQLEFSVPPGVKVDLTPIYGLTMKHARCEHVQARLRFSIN

[1] = Luminescent dose response cell-based high throughput screening assay for inhibitors of the Janus kinase 2 mutant JAK2V617F. [Related pubchem assays: 1446 (Primary screen.), 1521 (Confirmation assay.), 1486 (Counter screen.)]; assay type: functional
BJ [2] = assay: cytotoxicity toward BJ-TERT fibroblasts, dose response, cell-based, RAS-independent, luminescence (AID 1933); assay type: functional; conditions: Homo sapiens
BJ [3] = assay: cells; assay type: functional, cell-based; conditions: Homo sapiens
BJ [4] = assay: cytotoxicity toward BJ-TERT-LT-ST fibroblasts, dose response, cell-based, RAS-independent, luminescence (AID 1935); assay type: functional; conditions: Homo sapiens;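 note: BJ fibroblasts immortalized with TERT plus LT and ST oncogenes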
[5] = cytotoxicity toward DRD oncogenic fibroblasts, dose response, cell-based, non-viral oncogenic, luminescence (AID 1934); assay type: functional; conditions: Homo sapiens
[6] = molecular target: T2, Microphthalmia-associated transcription factor (Homo sapiens, UniProt O75030); assay: TRPM1 promoter luciferase signal decrease, dose response, MITF inhibitor project, cell-based, SK-MEL-5, cherry-picked, set 3 (AID 493073); assay type: functional
T2 sequence (O75030 whole entry): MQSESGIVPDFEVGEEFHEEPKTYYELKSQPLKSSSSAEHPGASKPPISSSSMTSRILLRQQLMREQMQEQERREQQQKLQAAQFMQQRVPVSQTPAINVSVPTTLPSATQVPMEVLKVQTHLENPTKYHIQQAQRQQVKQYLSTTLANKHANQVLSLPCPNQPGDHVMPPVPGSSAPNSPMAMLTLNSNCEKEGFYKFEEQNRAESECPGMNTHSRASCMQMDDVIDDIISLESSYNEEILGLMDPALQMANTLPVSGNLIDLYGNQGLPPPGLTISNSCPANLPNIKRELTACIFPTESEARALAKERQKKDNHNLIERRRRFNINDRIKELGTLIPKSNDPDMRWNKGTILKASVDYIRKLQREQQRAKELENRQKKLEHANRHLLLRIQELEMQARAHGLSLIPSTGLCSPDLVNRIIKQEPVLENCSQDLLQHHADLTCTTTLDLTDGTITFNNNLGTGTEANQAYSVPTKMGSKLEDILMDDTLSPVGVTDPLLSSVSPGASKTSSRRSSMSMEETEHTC

[7] = molecular target: T3, Replicative DNA helicase DnaB (Mycobacterium tuberculosis, UniProt P9WMR3); assay: DnaB intein splicing inhibitors, dose response, biochemical, cell-free fluorescence (AID 449749); assay type: functional
T3 sequence (P9WMR3 whole entry): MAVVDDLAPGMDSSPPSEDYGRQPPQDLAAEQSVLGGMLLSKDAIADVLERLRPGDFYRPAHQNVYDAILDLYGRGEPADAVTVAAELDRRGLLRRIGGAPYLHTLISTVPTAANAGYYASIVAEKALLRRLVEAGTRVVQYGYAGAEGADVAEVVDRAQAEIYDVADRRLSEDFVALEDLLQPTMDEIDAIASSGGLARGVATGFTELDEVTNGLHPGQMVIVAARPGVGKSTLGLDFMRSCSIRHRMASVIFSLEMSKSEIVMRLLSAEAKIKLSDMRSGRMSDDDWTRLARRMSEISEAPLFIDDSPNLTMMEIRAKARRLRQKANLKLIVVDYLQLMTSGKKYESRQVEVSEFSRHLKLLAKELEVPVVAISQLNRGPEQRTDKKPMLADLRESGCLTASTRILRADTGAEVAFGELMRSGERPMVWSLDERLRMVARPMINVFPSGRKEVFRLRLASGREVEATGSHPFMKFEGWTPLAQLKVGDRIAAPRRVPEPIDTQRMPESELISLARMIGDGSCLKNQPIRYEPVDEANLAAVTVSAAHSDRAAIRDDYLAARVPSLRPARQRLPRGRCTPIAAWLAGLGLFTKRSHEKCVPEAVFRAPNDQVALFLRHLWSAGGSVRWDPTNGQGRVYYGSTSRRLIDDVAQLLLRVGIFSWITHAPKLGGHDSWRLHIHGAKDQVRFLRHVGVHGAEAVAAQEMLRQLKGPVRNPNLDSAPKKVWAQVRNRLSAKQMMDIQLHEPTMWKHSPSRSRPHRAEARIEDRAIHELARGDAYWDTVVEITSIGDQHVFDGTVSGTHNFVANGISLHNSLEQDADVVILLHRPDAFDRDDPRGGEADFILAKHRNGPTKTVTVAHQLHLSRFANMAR

BJ [8] = assay: cytotoxicity toward Ras-transformed BJeLR fibroblasts, dose response, cell-based, alamar blue fluorescence, cherrypicked samples (AID 2631); assay type: functional; conditions: Homo sapiens;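 note: confirmatory dose-response assay in RAS-dependent BJ fibroblasts engineered with TERT, LT and ST, with cytotoxicity read by fluorescence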
Protein RecA = molecular target: T4, Protein RecA (Mycobacterium tuberculosis, UniProt P9WHJ3); assay: Fluorescence Cell-Free Homogeneous Dose Retest to Identify Inhibitors of RecA-Intein Splicing Activity. [Related pubchem assays (depositor defined):AID2097, AID2223, AID489010, AID492950]; assay type: functional
T4 sequence (P9WHJ3 whole entry): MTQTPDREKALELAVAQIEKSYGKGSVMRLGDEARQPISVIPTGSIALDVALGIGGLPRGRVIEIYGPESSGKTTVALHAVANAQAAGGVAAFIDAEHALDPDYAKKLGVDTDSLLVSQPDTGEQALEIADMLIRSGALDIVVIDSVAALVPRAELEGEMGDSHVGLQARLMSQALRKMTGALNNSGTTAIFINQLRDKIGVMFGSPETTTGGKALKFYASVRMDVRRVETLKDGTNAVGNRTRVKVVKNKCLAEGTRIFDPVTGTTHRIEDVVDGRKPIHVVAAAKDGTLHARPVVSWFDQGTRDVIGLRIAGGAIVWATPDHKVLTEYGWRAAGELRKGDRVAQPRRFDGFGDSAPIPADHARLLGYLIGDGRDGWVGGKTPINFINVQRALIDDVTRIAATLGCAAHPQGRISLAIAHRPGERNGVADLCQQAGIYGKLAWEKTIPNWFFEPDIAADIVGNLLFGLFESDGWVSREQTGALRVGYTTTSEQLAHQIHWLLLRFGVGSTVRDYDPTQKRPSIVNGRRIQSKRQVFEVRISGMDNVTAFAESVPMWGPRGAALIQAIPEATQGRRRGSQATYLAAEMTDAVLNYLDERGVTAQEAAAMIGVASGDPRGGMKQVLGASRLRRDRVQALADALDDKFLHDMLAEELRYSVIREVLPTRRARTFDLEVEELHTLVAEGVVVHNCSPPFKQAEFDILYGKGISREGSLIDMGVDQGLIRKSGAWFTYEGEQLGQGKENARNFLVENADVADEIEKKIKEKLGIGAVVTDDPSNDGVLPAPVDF

Paired box protein Pax-8 = Paired box protein Pax-8 (Homo sapiens, UniProt Q06710); assay: inhibitors of PAX8-driven TPO luciferase reporter, dose response, RMG-I cells, cherry-pick (AID 687027); assay type: functional, cell-based;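 note: luciferase reporter driven by Pax8 target thyroperoxidase promoter measured by SteadyGlo luminescence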
[9] = non-specific cell cytotoxicity, dose response, cytotoxicity control for PAX8 inhibitor project, plate reader, dry powder samples (AID 743021); assay type: functional, cell-based

Sequence of Ephrin type-A receptor 4 (Q03137 whole entry): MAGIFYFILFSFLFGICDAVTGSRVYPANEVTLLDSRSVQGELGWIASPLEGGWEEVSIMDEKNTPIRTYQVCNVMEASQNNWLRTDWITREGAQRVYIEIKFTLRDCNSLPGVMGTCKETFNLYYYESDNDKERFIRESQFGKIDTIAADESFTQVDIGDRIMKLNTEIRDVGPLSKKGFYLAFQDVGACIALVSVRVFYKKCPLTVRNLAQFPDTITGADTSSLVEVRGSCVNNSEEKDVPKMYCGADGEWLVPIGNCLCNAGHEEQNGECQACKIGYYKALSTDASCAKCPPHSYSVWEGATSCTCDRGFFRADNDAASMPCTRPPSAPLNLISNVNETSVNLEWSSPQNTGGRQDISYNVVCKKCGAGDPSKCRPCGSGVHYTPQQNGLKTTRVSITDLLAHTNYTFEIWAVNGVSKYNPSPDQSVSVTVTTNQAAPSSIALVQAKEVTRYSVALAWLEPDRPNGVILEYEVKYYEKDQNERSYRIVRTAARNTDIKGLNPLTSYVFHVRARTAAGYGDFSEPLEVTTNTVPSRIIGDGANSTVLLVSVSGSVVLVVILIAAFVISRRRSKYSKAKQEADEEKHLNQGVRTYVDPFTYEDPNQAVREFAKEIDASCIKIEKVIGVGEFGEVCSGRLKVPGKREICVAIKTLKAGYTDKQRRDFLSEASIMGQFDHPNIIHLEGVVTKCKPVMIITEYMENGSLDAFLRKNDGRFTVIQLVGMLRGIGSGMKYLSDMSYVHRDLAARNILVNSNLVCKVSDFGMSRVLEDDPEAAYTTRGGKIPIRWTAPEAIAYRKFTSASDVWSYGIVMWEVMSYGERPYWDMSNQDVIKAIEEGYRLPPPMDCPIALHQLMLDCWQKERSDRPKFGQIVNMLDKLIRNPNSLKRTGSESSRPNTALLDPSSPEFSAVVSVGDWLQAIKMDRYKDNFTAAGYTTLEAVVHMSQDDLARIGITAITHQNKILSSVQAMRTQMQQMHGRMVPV
Sequence of Paired box protein Pax-8 (Q06710 whole entry): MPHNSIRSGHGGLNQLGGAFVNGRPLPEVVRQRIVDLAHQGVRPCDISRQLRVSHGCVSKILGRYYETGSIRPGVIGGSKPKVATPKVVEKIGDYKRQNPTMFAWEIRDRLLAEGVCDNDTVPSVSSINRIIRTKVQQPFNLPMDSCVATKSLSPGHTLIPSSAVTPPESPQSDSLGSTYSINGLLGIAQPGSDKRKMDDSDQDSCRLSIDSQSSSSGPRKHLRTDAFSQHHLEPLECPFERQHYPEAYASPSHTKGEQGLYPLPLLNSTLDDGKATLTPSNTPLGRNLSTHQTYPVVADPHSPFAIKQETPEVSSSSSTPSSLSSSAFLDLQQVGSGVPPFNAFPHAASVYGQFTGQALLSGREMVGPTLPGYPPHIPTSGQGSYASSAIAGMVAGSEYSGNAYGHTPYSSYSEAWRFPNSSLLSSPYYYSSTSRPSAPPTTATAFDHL

Compound	IC50 (Ephrin type-A receptor 4)	AC50 (Cytochrome P450 1A2)	IC50 [1]	EC50 (BJ [2])	EC50 (BJ [3])	EC50 (BJ [4])	EC50 [5]	AC50 [6]	AC50 [7]	EC50 (BJ [8])	EC50 (Protein RecA)	AC50 (Paired box protein Pax-8)	AC50 [9]
Brc1ccc(-c2nnc(-c3cccc(Br)c3)o2)cc1	> 100 µM (not active)	0.316 µM (inconclusive)											
COc1ccccc1N(C(=O)CCl)c1cn(C(C)=O)c2ccccc12			1.2 µM (active)	5.21 µM (inconclusive)	5.64 µM (active)	> 150 µM (inconclusive)	3.11 µM (active)	8.82 µM (active)	12.8 µM (active)	1.52 µM (active)	0.846 µM (active)	1.56 µM (active)	3.66 µM (active)

Source: ChEMBL document CHEMBL1201862, “PubChem BioAssay data set” (2004)
